This note sets out measurements from patent US11739098B2 (BRISTOL-MYERS SQUIBB COMPANY, priority 2017, dated 2023).

Holding throughout (format): cell-based
One assay has as its target T1, human TLR8 (Homo sapiens, UniProt Q9NR97).
T1 construct: host or cells: HEK-Blue cells (HEK293-derived reporter line)
T1 sequence (Q9NR97 27-1041): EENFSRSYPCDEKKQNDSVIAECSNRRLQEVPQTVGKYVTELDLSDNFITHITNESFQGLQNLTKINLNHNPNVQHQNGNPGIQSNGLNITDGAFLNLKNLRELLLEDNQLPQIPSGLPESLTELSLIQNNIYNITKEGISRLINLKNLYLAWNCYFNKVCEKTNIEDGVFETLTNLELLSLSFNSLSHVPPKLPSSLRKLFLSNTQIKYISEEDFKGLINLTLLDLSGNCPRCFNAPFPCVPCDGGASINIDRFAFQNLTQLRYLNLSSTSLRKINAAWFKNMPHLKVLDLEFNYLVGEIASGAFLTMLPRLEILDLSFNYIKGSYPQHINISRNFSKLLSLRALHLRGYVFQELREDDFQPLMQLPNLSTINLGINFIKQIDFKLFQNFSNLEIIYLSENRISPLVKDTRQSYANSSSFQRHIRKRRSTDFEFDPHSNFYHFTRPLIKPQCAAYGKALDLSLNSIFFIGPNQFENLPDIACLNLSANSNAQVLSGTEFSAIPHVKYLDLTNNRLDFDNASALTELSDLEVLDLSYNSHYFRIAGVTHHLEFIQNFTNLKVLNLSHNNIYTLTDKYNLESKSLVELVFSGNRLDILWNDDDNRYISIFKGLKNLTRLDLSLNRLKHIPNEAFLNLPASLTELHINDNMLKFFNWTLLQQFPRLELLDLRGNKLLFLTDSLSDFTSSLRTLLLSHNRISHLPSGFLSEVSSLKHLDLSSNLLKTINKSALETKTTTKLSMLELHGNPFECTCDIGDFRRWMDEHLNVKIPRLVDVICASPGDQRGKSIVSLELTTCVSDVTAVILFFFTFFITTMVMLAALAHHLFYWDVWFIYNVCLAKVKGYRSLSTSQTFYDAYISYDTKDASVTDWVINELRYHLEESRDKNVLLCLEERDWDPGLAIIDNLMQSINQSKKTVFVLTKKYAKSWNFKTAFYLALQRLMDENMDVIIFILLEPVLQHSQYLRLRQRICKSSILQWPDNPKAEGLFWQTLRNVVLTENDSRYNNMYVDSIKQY
Nature of the assay: TLR8 inhibition reporter assay (HEK-Blue cells, SEAP reporter, R848 stimulation). Conditions: HEK-Blue cells overexpressing human TLR8, SEAP reporter, R848 15.9 μM. The procedure, abridged: (§1)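 Read-out is SEAP activity in HEK-Blue detection medium after 22 h at 37 °C, converted to percent inhibition against agonist-plus-DMSO and reference-inhibitor controls. Cells saw compound (0.05 nM–50 μM, 30 min, room temperature) before gardiquimod 7.5 μM, R848 15.9 μM or ODN2006 5 nM for TLR7, TLR8 and TLR9, respectively.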
(In general: In a reporter assay the amount or activity of a reporter protein is the signal.)

The target in another assay is T2, human TLR7 (Homo sapiens, UniProt Q9NYK1).
T2 construct: host or cells: HEK-Blue cells (HEK293-derived reporter line)
T2 sequence (Q9NYK1 27-1049): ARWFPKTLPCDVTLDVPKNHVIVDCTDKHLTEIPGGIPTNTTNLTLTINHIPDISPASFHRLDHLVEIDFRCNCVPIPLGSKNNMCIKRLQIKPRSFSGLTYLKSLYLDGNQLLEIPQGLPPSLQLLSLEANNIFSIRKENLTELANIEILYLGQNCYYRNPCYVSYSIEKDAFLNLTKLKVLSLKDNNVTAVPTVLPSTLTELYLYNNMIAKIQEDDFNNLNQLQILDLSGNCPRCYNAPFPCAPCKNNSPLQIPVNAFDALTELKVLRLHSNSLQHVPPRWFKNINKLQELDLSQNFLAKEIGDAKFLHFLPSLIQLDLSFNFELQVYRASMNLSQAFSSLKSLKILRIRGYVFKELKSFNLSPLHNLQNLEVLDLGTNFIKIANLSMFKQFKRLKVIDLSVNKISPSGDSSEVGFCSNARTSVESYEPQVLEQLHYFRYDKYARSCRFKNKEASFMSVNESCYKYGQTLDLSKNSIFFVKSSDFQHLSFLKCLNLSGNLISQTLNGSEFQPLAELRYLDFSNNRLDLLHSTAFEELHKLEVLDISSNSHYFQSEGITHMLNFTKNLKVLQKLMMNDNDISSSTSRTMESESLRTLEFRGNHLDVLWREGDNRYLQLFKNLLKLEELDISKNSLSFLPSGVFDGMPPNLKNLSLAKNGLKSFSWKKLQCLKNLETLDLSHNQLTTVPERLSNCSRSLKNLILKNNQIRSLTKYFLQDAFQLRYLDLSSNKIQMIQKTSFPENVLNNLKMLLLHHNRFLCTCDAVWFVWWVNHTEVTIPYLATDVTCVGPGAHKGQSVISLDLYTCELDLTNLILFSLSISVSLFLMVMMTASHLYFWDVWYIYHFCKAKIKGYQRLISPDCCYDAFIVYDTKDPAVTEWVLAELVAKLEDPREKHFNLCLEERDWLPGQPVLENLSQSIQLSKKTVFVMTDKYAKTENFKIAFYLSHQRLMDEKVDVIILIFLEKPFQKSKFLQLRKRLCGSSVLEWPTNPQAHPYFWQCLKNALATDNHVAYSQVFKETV
The experiment in a line: TLR7 inhibition reporter assay (HEK-Blue cells, SEAP reporter, gardiquimod stimulation). Conditions: HEK-Blue cells overexpressing human TLR7, SEAP reporter, gardiquimod 7.5 μM. The procedure, abridged: as §1

In a further assay the target is T3, human TLR9 (Homo sapiens, UniProt Q9NR96).
T3 construct: host or cells: HEK-Blue cells (HEK293-derived reporter line)
T3 sequence (Q9NR96 26-1032): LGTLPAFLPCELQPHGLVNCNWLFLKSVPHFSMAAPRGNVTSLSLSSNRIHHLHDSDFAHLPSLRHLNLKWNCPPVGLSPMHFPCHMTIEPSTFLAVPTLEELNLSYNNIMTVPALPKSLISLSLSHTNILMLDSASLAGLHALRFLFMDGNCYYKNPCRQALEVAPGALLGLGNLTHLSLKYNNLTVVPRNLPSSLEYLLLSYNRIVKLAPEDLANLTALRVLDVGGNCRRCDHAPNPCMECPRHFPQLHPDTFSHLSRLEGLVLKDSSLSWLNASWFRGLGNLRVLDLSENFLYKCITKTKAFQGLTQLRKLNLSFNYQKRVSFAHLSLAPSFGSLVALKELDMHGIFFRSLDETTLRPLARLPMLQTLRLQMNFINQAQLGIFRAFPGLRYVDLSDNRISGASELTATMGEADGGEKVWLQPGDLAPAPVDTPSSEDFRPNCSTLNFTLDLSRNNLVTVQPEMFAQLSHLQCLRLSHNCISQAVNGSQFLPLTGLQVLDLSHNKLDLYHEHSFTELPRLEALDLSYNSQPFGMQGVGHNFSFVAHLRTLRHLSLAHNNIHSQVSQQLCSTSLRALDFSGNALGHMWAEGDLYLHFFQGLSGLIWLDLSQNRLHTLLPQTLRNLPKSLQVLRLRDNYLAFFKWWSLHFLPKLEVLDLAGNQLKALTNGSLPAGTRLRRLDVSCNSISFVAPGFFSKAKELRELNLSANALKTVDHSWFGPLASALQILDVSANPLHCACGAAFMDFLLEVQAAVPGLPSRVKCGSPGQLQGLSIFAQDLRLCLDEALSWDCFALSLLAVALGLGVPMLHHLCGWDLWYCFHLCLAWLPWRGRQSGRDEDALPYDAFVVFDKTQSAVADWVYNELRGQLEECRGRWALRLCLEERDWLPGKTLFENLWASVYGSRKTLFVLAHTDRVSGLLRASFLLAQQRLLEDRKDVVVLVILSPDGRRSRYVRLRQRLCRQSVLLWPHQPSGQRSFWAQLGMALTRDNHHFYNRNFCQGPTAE
The experiment in a line: TLR9 inhibition reporter assay (HEK-Blue cells, SEAP reporter, ODN2006 stimulation). Conditions: HEK-Blue cells overexpressing human TLR9, SEAP reporter, ODN2006 5 nM. The procedure, abridged: as §1

pIC50: −log10 of the molar value.

With `CCc1c(-c2ccnc3[nH]ccc23)[nH]c2ccc(C3CCN(C4CCN(C)CC4)CC3)cc12` [Example 839, 4-(3-ethyl-5-(1′-methyl-[1,4′-bipiperidin]-4-yl)-1H-indol-2-yl)-1H-pyrrolo[2,3-b]pyridine], the pIC50 against human TLR8, against human TLR7 and against human TLR9 was > 7.00 in each case.

Take `CC(C)c1c(-c2ccnc3[nH]ncc23)[nH]c2ccc(C3CCN(C(=O)CN4CCC[C@H]4C(N)=O)CC3)cc12` [Example 584, (S)-1-(2-(4-(3-isopropyl-2-(1H-pyrazolo[3,4-b]pyridin-4-yl)-1H-indol-5-yl)piperidin-1-yl)-2-oxoethyl)pyrrolidine-2-carboxamide]: the figures for the pIC50 at human TLR8, on human TLR7 and against human TLR9 were > 7.00, > 7.00 and 4.30 to 6.00, respectively.

For `CCN(C)CCC(=O)N1CCC(c2ccc3[nH]c(-c4cc(C)c5nnnn5c4)c(C(C)C)c3c2)CC1` [Example 625, 3-(ethyl(methyl)amino)-1-(4-(3-isopropyl-2-(8-methyltetrazolo[1,5-a]pyridin-6-yl)-1H-indol-5-yl)piperidin-1-yl)propan-1-one], the pIC50 (as a rule, −log10 of the IC50, conventionally taken in molar units) at human TLR8 was > 7.00; at human TLR7, > 7.00; at human TLR9 it was 4.30 to 6.00.

On to `CC(C)c1c(-c2cc(CO)c3nccn3c2)[nH]c2ccc(C3CCN(CC(=O)N(C)C)CC3)cc12` [Example 329, 2-(4-(2-(8-(hydroxymethyl)imidazo [1,2-a]pyridin-6-yl)-3-isopropyl-1H-indol-5-yl)piperidin-1-yl)-N,N-dimethylacetamide], for which the pIC50 was > 7.00 on human TLR8, > 7.00 at human TLR7 and 6.00 to 7.00 against human TLR9.

Turning to `Cc1cc(-c2[nH]c3ccc(C4CCN(C5CCOCC5)CC4)cc3c2C(C)C)nn2ncnc12` [Example 686, 6-(3-isopropyl-5-(1-(tetrahydro-2H-pyran-4-yl)piperidin-4-yl)-1H-indol-2-yl)-8-methyl-[1,2,4]triazolo[1,5-b]pyridazine], the pIC50 against human TLR8 was > 7.00; against human TLR7 it was > 7.00; at human TLR9, 4.30 to 6.00.

Regarding `CC(C)c1c(-c2cnc3ccnn3c2)[nH]c2ccc(C3CCN(C(C)C)CC3)cc12` [Example 944, 6-(3-isopropyl-5-(1-isopropylpiperidin-4-yl)-1H-indol-2-yl)pyrazolo[1,5-a]pyrimidine], the pIC50 at human TLR8 is < 5.51; on human TLR7 it was 4.30 to 6.00; on human TLR9 it was 4.30 to 6.00.

Turning to `Cc1cc(-c2[nH]c3ccc(C4CCN(C(=O)CN(C)C)CC4)cc3c2C(C)C)cc2ccnn12` [Example 570, 2-(dimethylamino)-1-(4-(3-isopropyl-2-(7-methylpyrazolo[1,5-a]pyridin-5-yl)-1H-indol-5-yl)piperidin-1-yl)ethan-1-one], the pIC50 against human TLR8 was > 7.00; against human TLR7, > 7.00; against human TLR9, 4.30 to 6.00.

Turning to `Cc1cc(-c2[nH]c3ccc(C4CCNCC4)cc3c2C(C)C)cc2ncc(O)nc12` [Example 87, 6-(3-isopropyl-5-(piperidin-4-yl)-1H-indol-2-yl)-8-methylquinoxalin-2-ol], the pIC50 against human TLR8 was > 7.00; against human TLR7 it was > 7.00; on human TLR9, 6.00 to 7.00.

As for `CC(C)c1c(-c2c[nH]c3ncncc23)[nH]c2ccc(C3CCNCC3)cc12` [Example 13, 5-(3-isopropyl-5-(piperidin-4-yl)-1H-indol-2-yl)-7H-pyrrolo[2,3-d]pyrimidine], the pIC50 against human TLR8 is > 7.00; against human TLR7, > 7.00; at human TLR9, 6.00 to 7.00.

For `COc1cc(CN(C)C)cc(CN2CCC(c3ccc4[nH]c(-c5ccnc6[nH]ncc56)c(C(C)C)c4c3)CC2)c1O` [Example 924, 4-((dimethylamino)methyl)-2-((4-(3-isopropyl-2-(1H-pyrazolo[3,4-b]pyridin-4-yl)-1H-indol-5-yl)piperidin-1-yl)methyl)-6-methoxyphenol], the figures for the pIC50 at human TLR8, at human TLR7 and against human TLR9 were > 7.00, > 7.00 and 6.00 to 7.00, respectively.

`Cc1cc2nnnn2cc1-c1[nH]c2ccc(C3CCN(C4COC4)CC3)cc2c1C(C)C` [Example 742, 6-(3-isopropyl-5-(1-(oxetan-3-yl)piperidin-4-yl)-1H-indol-2-yl)-7-methyltetrazolo[1,5-a]pyridine]: the results for the pIC50 against human TLR8, against human TLR7 and against human TLR9 were 6.00 to 7.00, > 7.00 and 4.30 to 6.00, respectively.

With `CC(C)c1c(-c2ccnc3[nH]ncc23)[nH]c2ccc(C3CCN(CCCN4CCCCC4)CC3)cc12` [Example 848, 4-(3-isopropyl-5-(1-(3-(piperidin-1-yl)propyl)piperidin-4-yl)-1H-indol-2-yl)-1H-pyrazolo[3,4-b]pyridine], the pIC50 against human TLR8, against human TLR7 and against human TLR9 was 6.00 to 7.00 throughout.

As for `Cc1cc(-c2[nH]c3ccc(C4CCN(CC(C)(C)O)CC4)cc3c2C(C)C)cc2nccn12` [Example 757, 1-(4-(3-isopropyl-2-(5-methylimidazo[1,2-a]pyridin-7-yl)-1H-indol-5-yl)piperidin-1-yl)-2-methylpropan-2-ol], the results for the pIC50 at human TLR8, at human TLR7 and at human TLR9 were 6.00 to 7.00, 4.30 to 6.00 and 6.00 to 7.00, respectively.
